Patent US12180159B2, “Activators of the unfolded protein response” (The Board of Trustees of the University of Illinois, priority 2018, dated 2024)

Key:
MCF-7 cells = assay: Alamar blue fluorescence 24-hour cell death assay, MCF-7; format: cell-based, human; settings: MCF7, 24 hour incubation, Alamar Blue (FIG. 4)
Experimental: ALAMAR BLUE/RAPTINAL ASSAY: Live cells maintain a reducing environment. The non-fluorescent cell permeable ingredient of Alamar Blue® (resazurin) is taken up by cells. In living cells, it is reduced to the fluorescent compound resorufin. Using a standard curve of cell number versus fluorescence the number of live cells in a test sample can be determined. At high concentrations raptinal kills 100% of cells. The vehicle in which the test compound is dissolved is not toxic. Thus, after subtracting the blank for medium alone, the fluorescence reading for vehicle corresponds to 100% viable cells and the signal for raptinal corresponds to 0% viable cells. […]
ALAMAR BLUE RAPTINAL ASSAYS: Cells were plated at 4,000-10,000 cells/well (96 well plate), usually in 50 μl of medium. […] After 24 hours Alamar Blue reagent was added and fluorescence in the wells was read (BMG PheraStar or Molecular Devices Spectra Max M3 Microplate Reader). % relative death was determined by setting the reading for raptinal-treated cells to 100% dead cells and the reading for vehicle-treated cells to 0% dead cells.
Preparative gram-scale chiral separation of (±)-1 yields enantiopure (R)-1 and (S)-1 with opposite optical rotations (Scheme 5). […] Values were obtained after 24-hour incubation utilizing Alamar blue fluorescence assay normalized to live and death controls (vehicle and raptinal treated). […]

[1] = Pharmacokinetics, brain penetration and tolerability in mice; format: in vivo, mouse
Experimental: (§1) FIG. 40. SERK-F6 is tolerated, reaches biologically relevant concentrations, and crosses the blood-brain barrier in vivo. a, Serum concentrations of SERK-F6 after indicated doses, route of administration, and time. Concentration was determined via LC/MS/MS analysis. […] AUC: Area Under the Curve, Cmax: maximum concentration, t1/2: half-life. c,d, Mice (CD-1) were treated with the indicated doses and times, then sacrificed and their serum and brains collected. Concentrations were determined via LC/MS/MS analysis. […] Treatment arms: vehicle daily (n=3), vehicle weekly (n=3), fulv. weekly (5 mg/mouse, s.c., n=6), SERK-F6 daily (10 or 40 mg/kg p.o.). Vehicle arms were combined. g, Mass of tumors harvested from mice. h, observed murine weight during this MCF-7 study (n=6). i,j, Tumor measurements for MCF-7 bilateral orthotopic model (n=4-5).
The pharmacokinetics of SERK-F6 was measured in mice (FIG. 40A-B).

MCF-7 tumors = assay: MCF-7 orthotopic tumor model; format: in vivo, mouse
Experimental: FIG. 39. SERK-F6 eradicates wild-type ERα tumors via hyperactivation of aUPR. a, MCF-7 orthotopic tumors were established in Nu/J ovariectomized mice supplemented with a 60 day E2 pellet (0.36 mg) and grown to ˜400 mm^3 (28 days to establish), randomized, then treated with vehicle daily (n=3), vehicle weekly (n=3), fulv. weekly (5 mg/mouse, s.c., n=6), SERK-F6 daily (10 or 40 mg/kg p.o.). Vehicle arms were averaged. p values: *: p<0.05, **: p<0.01, ***: p<0.001, ****: p<0.0001. Tumor images were taken at the end of the study (day 21) and are representative of all tumors (n=6). b-e, MCF-7 cells were orthotopically bi-laterally grafted and tumors were grown until total tumor burden was ˜ 400 mm^3 prior to daily treatment with vehicle or SERK-F6 (40 mg/kg p.o.). Mice (n=5 per arm) were sacrificed after 3 days (b,c) and 7 days (d,e) and tumors harvested. […] Vinculin (Vin) was used as a loading control. […] Error bars represent S.E.M.
as §1
To probe the efficacy of SERK-F6 for killing ERα positive tumors, large MCF-7 tumors were grown and then intervened with therapy. […] The mice were then sacrificed prior to complete tumor eradication.

[2] = test system: sp-XBP1 mRNA in T47D-luciferase cells; assay: Induction of spliced XBP-1 mRNA (qRT-PCR); format: cell-based, human; settings: 100 nM
Experimental: ERα positive T47D-luciferase, human breast cancer cells, were maintained for the indicated times in vehicle (Ctl, Control), 100 nM BHPI or 100 nM (−)-105. At the indicated times RNA was isolated and levels of sp-XBP1 mRNA quantitated by qRT-PCR. (n=3±SEM). […] Increased sp-XBP1 mRNA is a widely used marker for unfolded protein response (UPR) activation.

[3] = test system: Y537S tumors (TYS cell line); assay: TYS-luc orthotopic tumor model, SERK-F6 i.p. and oral; format: in vivo, mouse
Text: FIG. 41. SERK-F6 eradicates mutant ERα primary and metastatic breast cancer. a-c, TYS-luc. orthotopic tumors were established in NSG ovariectomized mice (no E2 pellet, 60 days to establish) and dosed daily as indicated (n=5-6). b, representative examples of bioluminescence images of SERK-F6 treated mice (7 days). d,e, TDG-luc. orthotopic tumors were established in NSG ovariectomized mice (no E2 pellet, 120 days to establish) and dosed daily as indicated (n=4-5). e, Bioluminescence image of SERK-F6 treated mouse with TDG-luc. tumor burden after 7 days. f, MYS-luc. orthotopic tumors were established in NSG ovariectomized mice (no E2 pellet, 45 days to establish) and dosed daily as indicated (n=4-5). g, MDG-luc. orthotopic tumors were established in NSG ovariectomized mice (no E2 pellet, 45 days to establish) and dosed daily as indicated (n=4-5). h, Metastatic model with MDG-luc. cells injected into the tail-vein of NSG ovariectomized mice (no E2 pellet, 1.5 months to establish) and mice were dosed daily as indicated (n=4-5).
SERK-F6 treatment was again tolerated (FIG. 42E) at higher doses and enough to eradicate tumors (FIG. 42F).

SMILES: O=C1Nc2c(C(F)(F)F)cccc2C1(c1ccc(O)cc1)c1ccc(OC(F)(F)F)cc1 (single isomer, unassigned; (-)) [(−)-105, 3-(4-hydroxyphenyl)-3-(4-(trifluoromethoxy)phenyl)-7-(trifluoromethyl)indolin-2-one]
- ability to kill compared with BHPI and 01-15 (MCF-7 cells): superior to BHPI and 01-15
- blood-brain barrier penetration [1]: blood-brain barrier penetrant
- tolerability in vivo [1]: well-tolerated
- in-vivo UPR markers in tumors (MCF-7 tumors; 40 mg/kg p.o., tumors harvested before eradication): increases in P-PERK and P-eiF2alpha levels
- effect on large established MCF-7 tumors (MCF-7 tumors; mouse, in vivo): dramatic tumor regressions
- UPR activation, induction of sp-XBP1 mRNA [2]: much stronger UPR hyper-activator and inducer of sp-XBP1 than BHPI
- tumor regrowth at sub-therapeutic dose ([3]; 10 mg/kg oral): tumors did regrow
- tumor regrowth upon treatment cessation ([3]; after treatment cessation): tumors did not regrow
- effect on Y537S tumors ([3]; dose-dependent, i.p. and oral administration): eradicates Y537S tumors
